Experimental data from ChEMBL document CHEMBL1201862, “PubChem BioAssay data set” (2004).
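All cell lines were grown in 96-well plates and treated with compound for 48 hours. GI50 marks 50% less growth.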 Active and inactive are the calls of the source. Rule as the data show it: active = GI50 up to about 1.1 µM and inactive = higher.

Key:
Assay in all cases: growth of human tumour cells (NCI), 48 h
DU-145 = system: DU-145
NCI-H460 = system: NCI-H460
HCC 2998 = system: HCC 2998
MDA-MB-435 = system: MDA-MB-435
SN12C = system: SN12C
NCI/ADR-RES = system: NCI/ADR-RES
K562 = system: K562
Hs-578T = system: Hs-578T
HT-29 = system: HT-29
EKVX = system: EKVX
OVCAR-8 = system: OVCAR-8
M14 = system: M14
NCI-H23 = system: NCI-H23
786-0 = system: 786-0
Malme-3M = system: Malme-3M
OVCAR-3 = system: OVCAR-3
CAKI-1 = system: CAKI-1
LOX IMVI = system: LOX IMVI
SF-295 = system: SF-295
MDA-N = system: MDA-N
NCI-H226 = system: NCI-H226
UACC-257 = system: UACC-257
RPMI-8226 = system: RPMI-8226
A498 = system: A498
SK-MEL-2 = system: SK-MEL-2
NCI-H522 = system: NCI-H522
MDA-MB-231 = system: MDA-MB-231
SK-MEL-28 = system: SK-MEL-28
SW-620 = system: SW-620
ACHN = system: ACHN
UACC-62 = system: UACC-62
COLO 205 = system: COLO 205
KM12 = system: KM12
A549 = system: A549
IGROV-1 = system: IGROV-1
BT-549 = system: BT-549
HCT-15 = system: HCT-15
SF-539 = system: SF-539
UO-31 = system: UO-31
OVCAR-5 = system: OVCAR-5
SF-268 = system: SF-268
HOP-62 = system: HOP-62
U-251 = system: U-251
SNB-19 = system: SNB-19
HOP-92 = system: HOP-92
HCT-116 = system: HCT-116
SK-MEL-5 = system: SK-MEL-5
SK-OV-3 = system: SK-OV-3
SNB-75 = system: SNB-75
RXF 393 = system: RXF 393
MCF7 = system: MCF7
OVCAR-4 = system: OVCAR-4
T47D = system: T47D
PC-3 = system: PC-3
TK-10 = system: TK-10
CCRF-CEM = system: CCRF-CEM
MOLT-4 = system: MOLT-4
HL-60 = system: HL-60

CC1=NN(c2ccccc2Cl)C2(C1)SCC(=O)N2c1nc2ccccc2s1 (stereo not drawn)
GI50 (DU-145): > 100 µM (inactive) | GI50 (NCI-H460): > 100 µM (inactive) | GI50 (HCC 2998): > 100 µM (inactive) | GI50 (MDA-MB-435): > 100 µM (inactive) | GI50 (SN12C): > 100 µM (inactive) | GI50 (NCI/ADR-RES): > 100 µM (inactive) | GI50 (K562): > 100 µM (inactive) | GI50 (Hs-578T): > 100 µM (inactive) | GI50 (HT-29): > 100 µM (inactive) | GI50 (EKVX): > 100 µM (inactive) | GI50 (OVCAR-8): > 100 µM (inactive) | GI50 (M14): > 100 µM (inactive) | GI50 (NCI-H23): > 100 µM (inactive) | GI50 (786-0): > 100 µM (inactive) | GI50 (Malme-3M): > 100 µM (inactive) | GI50 (OVCAR-3): > 100 µM (inactive) | GI50 (CAKI-1): > 100 µM (inactive) | GI50 (LOX IMVI): > 100 µM (inactive) | GI50 (SF-295): > 100 µM (inactive) | GI50 (MDA-N): > 100 µM (inactive) | GI50 (NCI-H226): > 100 µM (inactive) | GI50 (UACC-257): > 100 µM (inactive) | GI50 (RPMI-8226): > 100 µM (inactive) | GI50 (A498): > 100 µM (inactive) | GI50 (SK-MEL-2): > 100 µM (inactive) | GI50 (NCI-H522): > 100 µM (inactive) | GI50 (MDA-MB-231): > 100 µM (inactive) | GI50 (SK-MEL-28): > 100 µM (inactive) | GI50 (SW-620): > 100 µM (inactive) | GI50 (ACHN): > 100 µM (inactive) | GI50 (UACC-62): > 100 µM (inactive) | GI50 (COLO 205): > 100 µM (inactive) | GI50 (KM12): > 100 µM (inactive) | GI50 (A549): > 100 µM (inactive) | GI50 (IGROV-1): > 100 µM (inactive) | GI50 (BT-549): > 100 µM (inactive) | GI50 (HCT-15): > 100 µM | GI50 (SF-539): > 100 µM (inactive) | GI50 (UO-31): > 100 µM (inactive) | GI50 (OVCAR-5): > 100 µM (inactive) | GI50 (SF-268): > 100 µM (inactive) | GI50 (HOP-62): > 100 µM (inactive) | GI50 (U-251): > 100 µM (inactive) | GI50 (SNB-19): > 100 µM (inactive) | GI50 (HOP-92): > 100 µM (inactive) | GI50 (HCT-116): > 100 µM (inactive) | GI50 (SK-MEL-5): > 100 µM (inactive) | GI50 (SK-OV-3): > 100 µM (inactive) | GI50 (SNB-75): > 100 µM (inactive) | GI50 (RXF 393): > 100 µM (inactive) | GI50 (MCF7): > 100 µM (inactive) | GI50 (OVCAR-4): > 100 µM (inactive) | GI50 (T47D): > 100 µM (inactive) | GI50 (PC-3): > 100 µM (inactive) | GI50 (TK-10): > 100 µM (inactive)

CC(C)=NN/C(=N\c1ccc(Cl)cc1)NS(=O)(=O)c1cc(Cl)c(Oc2ccc([N+](=O)[O-])cc2Cl)c(Cl)c1
GI50 (DU-145): > 100 µM (inactive) | GI50 (NCI-H460): > 100 µM (inactive) | GI50 (MDA-MB-435): 79.3 µM (inactive) | GI50 (SN12C): > 100 µM (inactive) | GI50 (NCI/ADR-RES): > 100 µM (inactive) | GI50 (K562): 53.6 µM (inactive) | GI50 (Hs-578T): 81.7 µM (inactive) | GI50 (HT-29): > 100 µM (inactive) | GI50 (EKVX): 29.4 µM (inactive) | GI50 (OVCAR-8): > 100 µM (inactive) | GI50 (M14): 75.9 µM (inactive) | GI50 (NCI-H23): > 100 µM (inactive) | GI50 (786-0): > 100 µM (inactive) | GI50 (CCRF-CEM): 78.5 µM (inactive) | GI50 (Malme-3M): 70 µM (inactive) | GI50 (OVCAR-3): > 100 µM (inactive) | GI50 (CAKI-1): > 100 µM (inactive) | GI50 (MOLT-4): 25.4 µM (inactive) | GI50 (LOX IMVI): > 100 µM (inactive) | GI50 (SF-295): 86.1 µM (inactive) | GI50 (MDA-N): > 100 µM (inactive) | GI50 (NCI-H226): > 100 µM (inactive) | GI50 (UACC-257): > 100 µM (inactive) | GI50 (RPMI-8226): 29.6 µM (inactive) | GI50 (SK-MEL-2): > 100 µM (inactive) | GI50 (NCI-H522): 91 µM (inactive) | GI50 (MDA-MB-231): 60.1 µM (inactive) | GI50 (SK-MEL-28): > 100 µM (inactive) | GI50 (SW-620): > 100 µM (inactive) | GI50 (UACC-62): > 100 µM (inactive) | GI50 (COLO 205): > 100 µM (inactive) | GI50 (KM12): > 100 µM (inactive) | GI50 (A549): 76.7 µM (inactive) | GI50 (IGROV-1): > 100 µM (inactive) | GI50 (BT-549): > 100 µM (inactive) | GI50 (HCT-15): > 100 µM | GI50 (UO-31): 56.8 µM (inactive) | GI50 (OVCAR-5): > 100 µM (inactive) | GI50 (SF-268): > 100 µM (inactive) | GI50 (HOP-62): > 100 µM (inactive) | GI50 (U-251): > 100 µM (inactive) | GI50 (SNB-19): > 100 µM (inactive) | GI50 (HL-60): > 100 µM (inactive) | GI50 (HOP-92): 51.8 µM (inactive) | GI50 (HCT-116): > 100 µM (inactive) | GI50 (SK-MEL-5): > 100 µM (inactive) | GI50 (MCF7): > 100 µM (inactive) | GI50 (OVCAR-4): 67.3 µM (inactive) | GI50 (T47D): 22.2 µM (inactive) | GI50 (PC-3): 87.9 µM (inactive) | GI50 (TK-10): > 100 µM (inactive)

CC(C)(C)c1ccc(NS(=O)(=O)c2ccc(N)cc2)cc1
GI50 (DU-145): 30.5 µM (inactive) | GI50 (NCI-H460): 33.7 µM (inactive) | GI50 (HCC 2998): 18.8 µM (inactive) | GI50 (MDA-MB-435): 29.9 µM (inactive) | GI50 (SN12C): 22.3 µM (inactive) | GI50 (NCI/ADR-RES): 25.4 µM (inactive) | GI50 (K562): 17.8 µM (inactive) | GI50 (Hs-578T): 27.4 µM (inactive) | GI50 (HT-29): 19 µM (inactive) | GI50 (EKVX): 26.9 µM (inactive) | GI50 (OVCAR-8): 27.5 µM (inactive) | GI50 (M14): 20.5 µM (inactive) | GI50 (NCI-H23): 26 µM (inactive) | GI50 (786-0): 23 µM (inactive) | GI50 (CCRF-CEM): 16.3 µM (inactive) | GI50 (Malme-3M): 19.5 µM (inactive) | GI50 (OVCAR-3): 2.76 µM (inactive) | GI50 (CAKI-1): 38.3 µM (inactive) | GI50 (MOLT-4): 14.5 µM (inactive) | GI50 (LOX IMVI): 17.6 µM (inactive) | GI50 (SF-295): 1.9 µM (inactive) | GI50 (MDA-N): 23.6 µM (inactive) | GI50 (NCI-H226): 22.2 µM (inactive) | GI50 (UACC-257): 38.4 µM (inactive) | GI50 (RPMI-8226): 11.6 µM (inactive) | GI50 (A498): 20.1 µM (inactive) | GI50 (SK-MEL-2): 19.5 µM (inactive) | GI50 (NCI-H522): 17 µM (inactive) | GI50 (MDA-MB-231): 25.8 µM (inactive) | GI50 (SK-MEL-28): 27.2 µM (inactive) | GI50 (SW-620): 26.9 µM (inactive) | GI50 (ACHN): 29.4 µM (inactive) | GI50 (UACC-62): 15.7 µM (inactive) | GI50 (COLO 205): 16.1 µM (inactive) | GI50 (KM12): 36.6 µM (inactive) | GI50 (A549): 27.1 µM (inactive) | GI50 (IGROV-1): 18.8 µM (inactive) | GI50 (BT-549): 23.4 µM (inactive) | GI50 (HCT-15): 30.3 µM | GI50 (SF-539): 25.8 µM (inactive) | GI50 (UO-31): 24.9 µM (inactive) | GI50 (OVCAR-5): 31.5 µM (inactive) | GI50 (SF-268): 26.9 µM (inactive) | GI50 (HOP-62): 0.634 µM (active) | GI50 (U-251): 19.3 µM (inactive) | GI50 (SNB-19): 35.7 µM (inactive) | GI50 (HL-60): 18.1 µM (inactive) | GI50 (HCT-116): 18 µM (inactive) | GI50 (SK-MEL-5): 17.9 µM (inactive) | GI50 (SK-OV-3): 3.29 µM (inactive) | GI50 (SNB-75): 30.8 µM (inactive) | GI50 (RXF 393): 29.1 µM (inactive) | GI50 (MCF7): 18.4 µM (inactive) | GI50 (OVCAR-4): 35.8 µM (inactive) | GI50 (T47D): 28.3 µM (inactive) | GI50 (PC-3): 28.5 µM (inactive) | GI50 (TK-10): 59 µM (inactive)
